Structures can show the parent of a compound that is named as a salt. Where two headings read alike, the source gives them in different places.
What was measured:
[1] = molecular target: T1, SARS-CoV-2 PLpro (nsp3 1564–1878) (Severe acute respiratory syndrome coronavirus 2, UniProt P0DTD1); assay: biochemical; design: FRET-quenched peptide (Pro3) cleavage by PLpro, 10 min pre-incubation, slope over 20 min, normalised to no-compound control; details: low concentration screen, read-out: % of control remaining
[2] = molecular target: T1, SARS-CoV-2 PLpro (nsp3 1564–1878); assay: biochemical; design: FRET-quenched peptide (Pro3) cleavage by PLpro, 10 min pre-incubation, slope over 20 min, normalised to no-compound control; details: high concentration screen, read-out: % of control remaining

SMILES: O=C(O)CNC(=O)C(CS)Cc1ccccc1 (racemic) [DL-Thiorphan]
- remaining activity at 1.25 µM ([1]; Well no.=1243): 103%
- remaining activity at 3.75 µM ([2]; Well no.=1243): 104%

SMILES: NCCC[C@](N)(C(=O)O)C(F)F (racemic) [DL-alpha-Difluoromethylornithine hydrochloride]
- remaining activity at 1.25 µM ([1]; Well no.=500): 103%
- remaining activity at 3.75 µM ([2]; Well no.=500): 104%

SMILES: CCCCCCCCCCCCCCC[C@H](O)[C@H](N)CO (racemic) [DL-erythro-Dihydrosphingosine]
- remaining activity at 1.25 µM ([1]; Well no.=628): 95.5%
- remaining activity at 3.75 µM ([2]; Well no.=628): 93.6%

SMILES: COC(=O)C(N)Cc1ccc(Cl)cc1 (racemic) [DL-p-Chlorophenylalanine methyl ester hydrochloride]
- remaining activity at 1.25 µM ([1]; Well no.=364): 95.9%
- remaining activity at 3.75 µM ([2]; Well no.=364): 91.1%

SMILES: N[C@H](C(=O)O)[C@H](O)C(=O)O (racemic) [DL-threo-beta-hydroxyaspartic acid]
- remaining activity at 1.25 µM ([1]; Well no.=418): 96.9%
- remaining activity at 3.75 µM ([2]; Well no.=418): 95.6%

SMILES: Oc1cc2c(cc1O)[C@H]1c3ccccc3CN[C@@H]1CC2 (racemic) [Dihydrexidine hydrochloride]
- remaining activity at 1.25 µM ([1]; Well no.=645): 87.6%
- remaining activity at 3.75 µM ([2]; Well no.=645): 91.3%

SMILES: O=C(O)CCC/C=C\C[C@@H]1[C@@H](/C=C/[C@@H](O)COc2cccc(C(F)(F)F)c2)[C@H](O)C[C@@H]1O (racemic) [Fluprostenol]
- remaining activity at 1.25 µM ([1]; Well no.=4528): 96.4%
- remaining activity at 3.75 µM ([2]; Well no.=4528): 99.8%

SMILES: O=C(C[C@H]1NCCC[C@@H]1O)Cn1cnc2cc(Br)c(Cl)cc2c1=O (racemic) [Halofuginone]
- remaining activity at 1.25 µM ([1]; Well no.=7360): 103%
- remaining activity at 3.75 µM ([2]; Well no.=7360): 95.2%

SMILES: CC(=O)N1CCN(c2ccc(OC[C@@H]3CO[C@@](Cn4ccnc4)(c4ccc(Cl)cc4Cl)O3)cc2)CC1 (racemic) [Ketoconazole]
- remaining activity at 1.25 µM ([1]; Well no.=877): 107%
- remaining activity at 1.25 µM ([1]; Well no.=1853): 99.4%
- remaining activity at 3.75 µM ([2]; Well no.=877): 107%
- remaining activity at 3.75 µM ([2]; Well no.=1853): 100%

SMILES: CCN(CC)C(=O)[C@]1(c2ccccc2)C[C@@H]1CN (racemic) [Milnacipran HCl]
- remaining activity at 1.25 µM ([1]; Well no.=4977): 102%
- remaining activity at 3.75 µM ([2]; Well no.=4977): 101%

SMILES: CN1C(=O)NC(Cc2c[nH]c3c(Cl)cccc23)C1=O (racemic) [Necrostatin 2 (racemate)]
- remaining activity at 1.25 µM ([1]; Well no.=6828): 99.1%
- remaining activity at 3.75 µM ([2]; Well no.=6828): 95%

SMILES: CCCCCCCCCCCCCCCC(=O)OC(CC(=O)O)C[N+](C)(C)C (racemic) [Palmitoyl-DL-Carnitine chloride]
- remaining activity at 1.25 µM ([1]; Well no.=1098): 86.5%
- remaining activity at 3.75 µM ([2]; Well no.=1098): 85.4%

SMILES: CCOc1ccccc1O[C@H](c1ccccc1)[C@H]1CNCCO1 (racemic) [Reboxetine mesylate]
- remaining activity at 1.25 µM ([1]; Well no.=4989): 94.7%
- remaining activity at 3.75 µM ([2]; Well no.=4989): 91.1%

SMILES: C[C@@H](NCCc1ccc(O)cc1)[C@@H](O)c1ccc(O)cc1 (racemic) [Ritodrine (hydrochloride)]
- remaining activity at 1.25 µM ([1]; Well no.=6427): 100%
- remaining activity at 3.75 µM ([2]; Well no.=6427): 91.3%

SMILES: C[C@@H](NCCc1ccc(O)cc1)[C@@H](O)c1ccc(O)cc1 (racemic) [Ritodrine hydrochloride]
- remaining activity at 1.25 µM ([1]; Well no.=1156): 97.7%
- remaining activity at 3.75 µM ([2]; Well no.=1156): 103%

SMILES: COc1cc2c(cc1OC)[C@H]1CC(=O)[C@H](CC(C)C)CN1CC2 (racemic) [Tetrabenazine (Racemate)]
- remaining activity at 1.25 µM ([1]; Well no.=8692): 95.2%
- remaining activity at 3.75 µM ([2]; Well no.=8692): 93.1%

SMILES: N[C@@H]1C[C@H]1c1ccccc1 (racemic) [Tranylcypromine]
- remaining activity at 1.25 µM ([1]; Well no.=1564): 95.7%
- remaining activity at 3.75 µM ([2]; Well no.=1564): 95.7%

SMILES: COC(=O)C(C)(N)Cc1ccc(O)cc1 (racemic) [alpha-Methyl-DL-tyrosine methyl ester hydrochloride]
- remaining activity at 1.25 µM ([1]; Well no.=1068): 97%
- remaining activity at 3.75 µM ([2]; Well no.=1068): 96.5%

SMILES: CCCCCCCCCCCCCCCC(=O)NCC(COP(=O)([O-])OCC[N+](C)(C)C)OCC (racemic) [rac-2-Ethoxy-3-hexadecanamido-1-propylphosphocholine]
- remaining activity at 1.25 µM ([1]; Well no.=747): 93.3%
- remaining activity at 3.75 µM ([2]; Well no.=747): 94.6%

SMILES: CCCCCCCCCCCCCCCCCC(=O)NCC(COP(=O)([O-])OCC[N+](C)(C)C)OCC (racemic) [rac-2-Ethoxy-3-octadecanamido-1-propylphosphocholine]
- remaining activity at 1.25 µM ([1]; Well no.=413): 102%
- remaining activity at 3.75 µM ([2]; Well no.=413): 101%

SMILES: CCCCCCCCCCCCCCCC(=O)NCC(COP(=O)([O-])OCC[N+](C)(C)C)OC (racemic) [rac-2-Methoxy-3-hexadecanamido-1-propylphosphocholine]
- remaining activity at 1.25 µM ([1]; Well no.=1078): 97.5%
- remaining activity at 3.75 µM ([2]; Well no.=1078): 96.5%

SMILES: CCCCCCCCCCCCCCCCCC(=O)NCC(COP(=O)([O-])OCC[N+](C)(C)C)OC (racemic) [rac-2-Methoxy-3-octadecanamido-1-propylphosphocholine]
- remaining activity at 1.25 µM ([1]; Well no.=1126): 96.3%
- remaining activity at 3.75 µM ([2]; Well no.=1126): 96.8%

SMILES: CCCN(CCc1cccs1)C1CCc2c(O)cccc2C1 (racemic) [rac-Rotigotine (Hydrochloride)]
- remaining activity at 1.25 µM ([1]; Well no.=6809): 98.8%
- remaining activity at 3.75 µM ([2]; Well no.=6809): 95.7%

SMILES: O=C(O)[C@@H]1C[C@@H](C(=O)O)N1 (relative stereo) [trans-Azetidine-2,4-dicarboxylic acid]
- remaining activity at 1.25 µM ([1]; Well no.=68): 104%
- remaining activity at 3.75 µM ([2]; Well no.=68): 103%

SMILES: CN(C)CCC(c1ccc(Br)cc1)c1ccccn1 (single isomer, unassigned; (+)) [(+)-Brompheniramine maleate]
- remaining activity at 1.25 µM ([1]; Well no.=365): 98.9%
- remaining activity at 3.75 µM ([2]; Well no.=365): 98.5%

SMILES: CN(C)CCC(c1ccc(Cl)cc1)c1ccccn1 (single isomer, unassigned; (+)) [(+)-Chlorpheniramine maleate]
- remaining activity at 1.25 µM ([1]; Well no.=130): 105%
- remaining activity at 3.75 µM ([2]; Well no.=130): 105%

SMILES: COc1ccc2c3c1O[C@H]1C(=O)CC[C@@]4(O)C(C2)N(CC2CC2)CCC314 (single isomer, unassigned; (-)) [(-)-3-Methoxynaltrexone hydrochloride]
- remaining activity at 1.25 µM ([1]; Well no.=947): 98.1%
- remaining activity at 3.75 µM ([2]; Well no.=947): 97%

SMILES: CN1CCCC1c1cccnc1 (single isomer, unassigned; (-)) [(-)-Nicotine hydrogen tartrate salt]
- remaining activity at 1.25 µM ([1]; Well no.=809): 95.3%
- remaining activity at 3.75 µM ([2]; Well no.=809): 92.5%

SMILES: C[N+]1(C)C2CC(OC(=O)[C@H](CO)c3ccccc3)CC1C1OC12 (single isomer, unassigned; (-)) [(-)-Scopolamine methyl nitrate]
- remaining activity at 1.25 µM ([1]; Well no.=1454): 93.9%
- remaining activity at 3.75 µM ([2]; Well no.=1454): 96.6%

SMILES: CC(N)[C@H](O)c1ccc(O)c(O)c1 (single isomer, unassigned; (-)) [(-)-alpha-Methylnorepinephrine]
- remaining activity at 1.25 µM ([1]; Well no.=547): 102%
- remaining activity at 3.75 µM ([2]; Well no.=547): 103%

SMILES: CN1c2ccccc2C(=O)N2CCc3c([nH]c4ccccc34)C21 (stereo in doubt) [Evodiamine]
- remaining activity at 1.25 µM ([1]; Well no.=3809): 95.1%
- remaining activity at 3.75 µM ([2]; Well no.=3809): 98.5%

SMILES: Cc1ccc(S(=O)(=O)NC(=O)NN2CC3CCC[C@@H]3C2)cc1 (stereo in doubt) [Gliclazide]
- remaining activity at 1.25 µM ([1]; Well no.=2176): 101%
- remaining activity at 3.75 µM ([2]; Well no.=2176): 102%

Source: publication PMC8286840, “Identifying SARS-CoV-2 antiviral compounds by screening for small molecule inhibitors of Nsp3 papain-like protease” (Biochemical Journal, 2021)
